US20250353825A1, “CANNABICYCLOL DERIVATIVES AND PREPARATION METHODS THEREOF” (priority 2023, published 2025)
Converted amounts (≈) assume the structure as drawn.

Experiments:
Type in all cases: cell-based
U251 = assay: MTS cell viability assay, U251
Protocol: (§1) Primary viability screening: (1) the synthesized compounds 3a to 13d were respectively dissolved in DMSO to prepare a 40 μg/mL cannabicyclol and cannabicyclol derivative solutions.
(§2) (2) A control group: a 200 μL DMSO solvent.
(§3) (3) The solutions of compounds 3a to 13d were diluted in a twofold gradient to obtain cannabicyclol and cannabicyclol derivative solutions at concentrations of 40 μg/mL, 20 μg/mL, 10 μg/mL, 5 μg/mL, 2.5 μg/mL, 1.25 μg/mL, and 0.625 μg/mL, and 0.3125 μg/mL, respectively.
(§4) (4) Three glioblastoma stem cells (GSC-3, GSC-12, and GSC-18), three pancreatic cancer cell-derived stem cells (PANC-1-CSC, BXPC-3-CSC, and ASPC1-CSC), three liver cancer cell-derived stem cells (HepG2-CSC, MHCC97H-CSC, and SMMC7721-CSC), HEK-293T cells, 16 tumor cells (U251, U87, T98G, PANC1, BXPC3, ASPC1, HepG2, MHCC97H, SMMC7721, PC3, SKOV3, MDA-MB231, A549, HCT116, HEC-1B, MKN28), and differentiated glioblastoma stem cells (GSC-3diff and GSC-12diff) derived from GSC-3 and GSC-12 (all of the cells were provided by the Laboratory of Tumor Animal Model Preparation and Application Research, West China Hospital, Sichuan University) were inoculated into a 96-well plate at a concentration of 2×10^4 cells/well, and 100 μL of culture medium was then added to each well;
(5) 2) HEK-293T, GSC-3diff, GSC-12diff, and the 16 tumor cells were added with DMEM, 10% FBS, and 1% double antibody culture medium. Cancer stem cells (CSCs) were added with serum-free stem cell medium consisting of DMEM/F12, EGF (20 ng/mL), bFGF (20 ng/mL), B27 (1×), and 1% double antibody culture medium.
(6) Inoculated cells were put into a cell culture incubator for 24 hours, and after the cells were well adhered to the wall, the culture medium in the 96-well plate was discarded.
(7) 200 μL cannabicyclol and cannabicyclol derivatives solutions at different concentrations were added to the cultured cells.
(8) The experiment was set up with 3 replicates.
(9) The 96-well plate was placed in a cell culture incubator, and incubation was continued at 37° C. and 5% CO2 for 72 hours. Then, 100 μL of cannabicyclol and cannabicyclol derivative solution per well was discarded (100 μL of DMSO solvent was discarded for the control group), and 20 μL of LMTS (CellTiter AQueous Non-Radioactive Cell Proliferation Assay, #G3581) was mixed and continued to be placed in the cell incubator for 2 hours of incubation.
(§5) (10) The absorbance value at 490 nm was measured on an enzyme labeling apparatus, and the IC50 value was calculated.

GSC-12 = assay: MTS cell viability assay, GSC-12; details: GSC12; Table 6, tumor stem cell, 72 hours; read-out: IC50 against GSC-12
Protocol: as §1, §2, §3
as §4, with “well; […]” for “well;”
as §5

GSC-18 = assay: MTS cell viability assay, GSC-18; details: GSC18; Table 6, tumor stem cell, 72 hours; read-out: IC50 against GSC-18
Protocol: as §1, §2, §3
as §4, with “well; […]” for “well;”
as §5

BXPC3 = assay: MTS cell viability assay, BXPC3; details: Homo sapiens, BXPC-3; Table 7, 72 hours; read-out: IC50 against BXPC3
Protocol: as §1, §2, §3
as §4, with “well; […]” for “well;”
as §5

MDA-MB231 = assay: MTS cell viability assay, MDA-MB231; details: Homo sapiens, MDA-MB-231; Table 7, 72 hours; read-out: IC50 against MDA-MB231
Protocol: as §1, §2, §3
as §4, with “well; […]” for “well;”
as §5

A549 = assay: MTS cell viability assay, A549; details: Homo sapiens, Table 7, 72 hours, read-out: IC50 against A549
Protocol: as §1, §2, §3
as §4, with “well; […]” for “well;”
as §5

HCT116 = assay: MTS cell viability assay, HCT116; details: Homo sapiens, HCT-116; Table 7, 72 hours; read-out: IC50 against HCT116
Protocol: as §1, §2, §3
as §4, with “well; […]” for “well;”
as §5

HEC18 = assay: MTS cell viability assay, HEC18; details: Table 7, 72 hours; read-out: IC50 against HEC18
Protocol: as §1, §2, §3
as §4, with “well; […]” for “well;”
as §5

GSC-12diff = assay: MTS cell viability assay, differentiated glioblastoma stem cells GSC-12diff; details: Table 7, 72 hours, read-out: IC50 against GSC-12diff
Protocol: as §1, §2, §3
as §4, with “well; […]” for “well;”
as §5

## CCCCCc1cc(O)c2c(c1)OC1(C)CCC3C1C2C3(C)C (stereo not shown) [Compound 3a, cannabicyclol]
U251; Homo sapiens, U-251, 72 h, read-out: IC50 against U251
  IC50: > 40 µg/mL
U251; primary viability screening, 72 hours, MTS, test concentration not stated
  Cell viability in U251 (%): 54%
GSC-12
  IC50: 8.03 µg/mL (≈ 25.5 µM)
GSC-18
  IC50: 6.4 µg/mL (≈ 20.4 µM)
BXPC3
  IC50: > 40 µg/mL
MDA-MB231
  IC50: > 40 µg/mL
A549
  IC50: > 40 µg/mL
HCT116
  IC50: > 40 µg/mL
HEC18
  IC50: > 40 µg/mL
GSC-12diff
  IC50: 29.6 µg/mL (≈ 94.3 µM)
